Reference: patent US11000033B2, “Ketone or oxime compound, and herbicide” (NISSAN CHEMICAL CORPORATION, priority 2014, dated 2021)

What was measured:
Type in all cases: in vivo
Scirpus juncoides = experiment: Test Example 1: herbicidal activity, application before weed generation in submerged conditions (symbol B); settings: application herbicide amount 320 g/ha
In short: (§1)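 Application before weed emergence: an aqueous dilution of the emulsion formulation was poured onto the surface of 4 cm-deep floodwater on the day of sowing. Effect was judged after 3 weeks (greenhouse, 25–30 °C).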

wheat [1] = experiment: Test Example 5: effect on crop by foliage application, plastic box (symbol e); settings: 320 g/ha, 3 weeks after application
In short: (§2)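 Seeds were sown in spots in sterilized diluvial soil held in a plastic box 21 cm × 13 cm × 7 cm deep, covered with about 1.5 cm of soil, and grown in a greenhouse at 25° C. to 30° C.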

Monochoria vaginalis [2] = experiment: Test Example 1: herbicidal activity, application before weed generation in submerged conditions (symbol C); settings: application herbicide amount 320 g/ha
In short: as §1

Avena fatua = experiment: Test Example 5: herbicidal effect by foliage application, plastic box (symbol I); settings: 320 g/ha, 3 weeks after application
In short: (§3)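 Herbicide, formulated as an emulsion and diluted in water, is sprayed onto the aerial parts of 14-day seedlings. These were grown at 25° C. to 30° C. in sterilized diluvial soil; effects are graded after 3 weeks.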

[3] = test system: Echinochloa oryzacola Vasing.; experiment: Test Example 2: herbicidal activity, application during weed generation in submerged conditions (symbol A); settings: Table 23; application herbicide amount 320 g/ha; grade 0-5 by criteria of Test Example 1
In short: (§4)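 Alluvial soil in pots was flooded to a 4 cm water depth and sown with a mix of the three weed species, then grown in a greenhouse at 25° C. to 30° C. At the one- to two-leaf stage, an emulsifiable formulation diluted in water to a set dose was applied to the water surface. Effects were scored visually 3 weeks later.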

[4] = test system: directly sowed rice plant; experiment: Test Example 3: effect on crop by foliage application, Wagner pot (symbol b); settings: application herbicide amount 320 g/ha
In short: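 Greenhouse culture at 25–30 °C of seeded rice, Cyperus difformis, Leptochloa chinensis and Echinochloa crus-galli var. crus-galli, in alluvial soil held under 0.1–0.5 cm of water in a Wagner pot.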

wheat [5] = experiment: Test Example 4: effect on crop by soil treatment (symbol e); settings: for e: wheat, effect on crop grade: application herbicide amount 320 g/ha; for e: wheat, effect grade on crop: 320 g/ha
In short: (§5)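 Plants grew in a 25° C. to 30° C. greenhouse after spot-sowing of seeds, including beet, rapeseed, wheat and rice, into sterilized diluvial soil under roughly 1.5 cm of cover soil.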

Amaranthus retroflexus = experiment: Test Example 5: herbicidal effect by foliage application, plastic box (symbol N); settings: 320 g/ha, 3 weeks after application
In short: as §3

soybean = experiment: Test Example 4: effect on crop by soil treatment (symbol d); settings: for d: soybean, effect on crop grade: application herbicide amount 320 g/ha; for d: soybean, effect grade on crop: 320 g/ha
In short: as §5

Veronica persica = experiment: Test Example 5: herbicidal effect by foliage application, plastic box (symbol R); settings: 320 g/ha, 3 weeks after application
In short: as §3

Lolium multiflorum Lam. = experiment: Test Example 4: herbicidal effect by soil treatment (symbol K)
In short: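 Seeds were sown in sterilized diluvial soil, covered with about 1.5 cm of soil, and the soil surface was sprayed with a water-diluted emulsion of the compound at a predetermined rate. Plants grew in a greenhouse at 25° C. to 30° C.; effects were scored visually 3 weeks after application.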

beet = experiment: Test Example 4: effect on crop by soil treatment (symbol f); settings: for f: beet, effect on crop grade: application herbicide amount 320 g/ha; for f: beet, effect grade on crop: 320 g/ha
In short: as §5

Monochoria vaginalis [6] = experiment: Test Example 2: herbicidal activity, application during weed generation in submerged conditions (symbol C); settings: Table 23; application herbicide amount 320 g/ha; grade 0-5 by criteria of Test Example 1
In short: as §4

rapeseed = experiment: Test Example 5: effect on crop by foliage application, plastic box (symbol g); settings: 320 g/ha, 3 weeks after application
In short: as §2

[7] = application herbicide amount 320 g/ha

SMILES | Herbicidal effect grade, B: Scirpus juncoides (Scirpus juncoides) | e: wheat, effect on crop grade (wheat [1]) | Herbicidal effect grade, C: Monochoria vaginalis (Monochoria vaginalis [2]) | I: Avena fatua, herbicidal effect grade (Avena fatua) | Herbicidal effect grade, A: Echinochloa oryzacola Vasing. [3] | effect on crop b (directly sowed rice plant), grade 0-5 [4] | e: wheat, effect on crop grade (wheat [5]) | N: Amaranthus retroflexus, herbicidal effect grade (Amaranthus retroflexus) | d: soybean, effect on crop grade (soybean) | R: Veronica persica, herbicidal effect grade (Veronica persica) | K: Lolium multiflorum Lam., herbicidal effect grade (Lolium multiflorum Lam.; [7]) | f: beet, effect on crop grade (beet) | Herbicidal effect grade, C: Monochoria vaginalis (Monochoria vaginalis [6]) | g: rapeseed, effect on crop grade (rapeseed) | e: wheat, effect on crop (criteria 0-5) (wheat [1]) | I: Avena fatua, herbicidal effect (criteria 0-5) (Avena fatua) | e: wheat, effect grade on crop (wheat [5]) | N: Amaranthus retroflexus, herbicidal effect (criteria 0-5) (Amaranthus retroflexus) | d: soybean, effect grade on crop (soybean) | R: Veronica persica, herbicidal effect (criteria 0-5) (Veronica persica) | other results
C=Cc1cc(C)c(C2=C(O)CC(CC(C)=NOC)C2=O)c(C)c1 (mixture of isomers) [6-031] | 0 (Herbicidal ratio of 5% or lower (almost no effect)) | 0 (Herbicidal ratio of 5% or lower (almost no effect)) | 0 (Herbicidal ratio of 5% or lower (almost no effect)) | 5 (Herbicidal ratio of 90% or more (almost completely withered)) | 4 (Herbicidal ratio of 70% or higher and lower than 90%) | 4 (Herbicidal ratio of 70% or higher and lower than 90%) | 0 (Herbicidal ratio of 5% or lower (almost no effect)) | 0 (Herbicidal ratio of 5% or lower (almost no effect)) | 0 (Herbicidal ratio of 5% or lower (almost no effect)) | 1 (Herbicidal ratio of 5% or higher and lower than 20%) | 3 (Herbicidal ratio of 40% or higher and lower than 70%) | 0 (Herbicidal ratio of 5% or lower (almost no effect)) | 0 (Herbicidal ratio of 5% or lower (almost no effect)) | 3 (Herbicidal ratio of 40% or higher and lower than 70%) | – | – | – | – | – | – | –
CON=C(C)CC1CC(OC(=O)N2CCN(C)CC2)=C(c2c(C)cc(C)cc2C)C1=O (stereo not drawn) [1-152] | 0 (Herbicidal ratio of 5% or lower (almost no effect)) | – | 0 (Herbicidal ratio of 5% or lower (almost no effect)) | – | 2 (Herbicidal ratio of 20% or higher and lower than 40%) | 5 (Herbicidal ratio of 90% or more (almost completely withered)) | – | – | – | – | – | – | 0 (Herbicidal ratio of 5% or lower (almost no effect)) | – | 3 (Herbicidal ratio of 40% or higher and lower than 70%) | 4 (Herbicidal ratio of 70% or higher and lower than 90%) | 0 (Herbicidal ratio of 5% or lower (almost no effect)) | 3 (Herbicidal ratio of 40% or higher and lower than 70%) | 0 (Herbicidal ratio of 5% or lower (almost no effect)) | 0 (Herbicidal ratio of 5% or lower (almost no effect)) | K: Lolium multiflorum Lam., herbicidal effect grade (Lolium multiflorum Lam.; 320 g/ha): 2 (Herbicidal ratio of 20% or higher and lower than 40%); f: beet, effect grade on crop (beet): 0 (Herbicidal ratio of 5% or lower (almost no effect)); g: rapeseed, effect on crop (criteria 0-5) (rapeseed): 4 (Herbicidal ratio of 70% or higher and lower than 90%)
CON=C(C)CC1CC(O)=C(c2c(C)cc(-c3ccc(OC)cc3)cc2C)C1=O (mixture of isomers) [6-017] | 1 (Herbicidal ratio of 5% or higher and lower than 20%) | 1 (Herbicidal ratio of 5% or higher and lower than 20%) | 0 (Herbicidal ratio of 5% or lower (almost no effect)) | 5 (Herbicidal ratio of 90% or more (almost completely withered)) | 4 (Herbicidal ratio of 70% or higher and lower than 90%) | 5 (Herbicidal ratio of 90% or more (almost completely withered)) | 0 (Herbicidal ratio of 5% or lower (almost no effect)) | 0 (Herbicidal ratio of 5% or lower (almost no effect)) | 0 (Herbicidal ratio of 5% or lower (almost no effect)) | 3 (Herbicidal ratio of 40% or higher and lower than 70%) | 4 (Herbicidal ratio of 70% or higher and lower than 90%) | 0 (Herbicidal ratio of 5% or lower (almost no effect)) | 0 (Herbicidal ratio of 5% or lower (almost no effect)) | 3 (Herbicidal ratio of 40% or higher and lower than 70%) | – | – | – | – | – | – | –
CCC(=O)CC1CC(O)=C(c2c(C)cc(C)cc2C)C1=O (stereo not drawn) [2-006] | 2 (Herbicidal ratio of 20% or higher and lower than 40%) | 0 (Herbicidal ratio of 5% or lower (almost no effect)) | 3 (Herbicidal ratio of 40% or higher and lower than 70%) | 3 (Herbicidal ratio of 40% or higher and lower than 70%) | 5 (Herbicidal ratio of 90% or more (almost completely withered)) | 5 (Herbicidal ratio of 90% or more (almost completely withered)) | 0 (Herbicidal ratio of 5% or lower (almost no effect)) | 0 (Herbicidal ratio of 5% or lower (almost no effect)) | 0 (Herbicidal ratio of 5% or lower (almost no effect)) | 0 (Herbicidal ratio of 5% or lower (almost no effect)) | 5 (Herbicidal ratio of 90% or more (almost completely withered)) | 0 (Herbicidal ratio of 5% or lower (almost no effect)) | 2 (Herbicidal ratio of 20% or higher and lower than 40%) | 0 (Herbicidal ratio of 5% or lower (almost no effect)) | – | – | – | – | – | – | –
CCCC(=O)CC1CC(O)=C(c2c(C)cc(C)cc2C)C1=O (stereo not drawn) [2-021] | 4 (Herbicidal ratio of 70% or higher and lower than 90%) | 0 (Herbicidal ratio of 5% or lower (almost no effect)) | 2 (Herbicidal ratio of 20% or higher and lower than 40%) | 3 (Herbicidal ratio of 40% or higher and lower than 70%) | 5 (Herbicidal ratio of 90% or more (almost completely withered)) | 5 (Herbicidal ratio of 90% or more (almost completely withered)) | 0 (Herbicidal ratio of 5% or lower (almost no effect)) | 0 (Herbicidal ratio of 5% or lower (almost no effect)) | 0 (Herbicidal ratio of 5% or lower (almost no effect)) | 0 (Herbicidal ratio of 5% or lower (almost no effect)) | 5 (Herbicidal ratio of 90% or more (almost completely withered)) | 0 (Herbicidal ratio of 5% or lower (almost no effect)) | 1 (Herbicidal ratio of 5% or higher and lower than 20%) | 3 (Herbicidal ratio of 40% or higher and lower than 70%) | – | – | – | – | – | – | –
CON=C(C)CC1CC(OC(=O)C(C)(C)c2ccc(Cl)cc2)=C(c2c(C)cc(C)cc2C)C1=O (stereo not drawn) [1-148] | 4 (Herbicidal ratio of 70% or higher and lower than 90%) | – | 3 (Herbicidal ratio of 40% or higher and lower than 70%) | – | 5 (Herbicidal ratio of 90% or more (almost completely withered)) | 5 (Herbicidal ratio of 90% or more (almost completely withered)) | – | – | – | – | – | – | 4 (Herbicidal ratio of 70% or higher and lower than 90%) | – | 5 (Herbicidal ratio of 90% or more (almost completely withered)) | 5 (Herbicidal ratio of 90% or more (almost completely withered)) | 0 (Herbicidal ratio of 5% or lower (almost no effect)) | 2 (Herbicidal ratio of 20% or higher and lower than 40%) | 0 (Herbicidal ratio of 5% or lower (almost no effect)) | 3 (Herbicidal ratio of 40% or higher and lower than 70%) | K: Lolium multiflorum Lam., herbicidal effect grade (Lolium multiflorum Lam.; 320 g/ha): 5 (Herbicidal ratio of 90% or more (almost completely withered)); f: beet, effect grade on crop (beet): 0 (Herbicidal ratio of 5% or lower (almost no effect)); g: rapeseed, effect on crop (criteria 0-5) (rapeseed): 5 (Herbicidal ratio of 90% or more (almost completely withered))
